Test results reported in US20240329033A1, “MonoMac-1 Cells Expressing CD16 and CD163” (Temple University-Of The Commonwealth System of Higher …, priority 2016, published 2024).

B1: macrophage colony-stimulating factor (protein, UniProt P09603 33-554, looked up)
Macrophage colony-stimulating …: EEVSEYCSHMIGSGHLQSLQRLIDSQMETSCQITFEFVDQEQLKDPVCYLKKAFLLVQDIMEDTMRFRDNTPNAIAIVQLQELSLRLKSCFTKDYEEHDKACVRTFYETPLQLLEKVKNVFNETKNLLDKDWNIFSKNCNNSFAECSSQDVVTKPDCNCLYPKAIPSSDPASVSPHQPLAPSMAPVAGLTWEDSEGTEGSSLLPGEQPLHTVDPGSAKQRPPRSTCQSFEPPETPVVKDSTIGGSPQPRPSVGAFNPGMEDILDSAMGTNWVPEEASGEASEIPVPQGTELSPSRPGGGSMQTEPARPSNFLSASSPLPASAKGQQPADVTGTALPRVGPVRPTGQDWNHTPQKTDHPSALLRDPPEPGSPRISSLRPQGLSNPSTLSAQPQLSRSHSSGSVLPLGELEGRRSTRDRRSPAEPEGGPASEGAARPLPRFNSVPLTDTGHERQSEGSFSPQLQESVFHLLVPSVILVLLAVGGLLFYRWRRRSHQEPQRADSPLEQPEGSPLTQDDRQVELPV
B2: IFN γ: cytokine inducer of IDO enzyme induction (protein, UniProt P01579 24-161, looked up)
Interferon gamma: QDPYVKEAENLKKYFNAGHSDVADNGTLFLGILKNWKEESDRKIMQSQIVSFYFKLFKNFKDDQSIQKSVETIKEDMNVKFFNSNKKKRDDFEKLTNYSVTDLNVQRKAIHELIQVMAELSPAAKTGKRKRSQMLFRG

Tests used:
Type in all cases: cell-based, human
MONO-MAC-1 cells = test: Flow cytometry of CD163, CD16 and CD4 expression in differentiated MONO-MAC-1 cells; conditions: for expression of CD163+ / expression of CD16+: added for 24 hours to MonoMac-1 treated with PMA+DEX+MCSF+LPS; for expression of CD163+: FIG. 6A; for expression of CD16+: FIG. 6B
Procedure: MONO-MAC-1 cells were cultured at 37° C. in a humidified atmosphere containing 5% CO2 using RPM1 1640 medium supplemented with 10% heat-inactivated fetal bovine serum (FBS, Sigma) and 1% of stable glutamine, 1 mM sodium pyruvic acid and 1×MEM non-essential amino acids were added. Cells were seeded at a density of 0.5×10^6 cells/ml and were sub cultured upon reaching 1× 10^6 cells/ml. Medium was changed every 2 to 3 days. […] Data were analyzed with GraphPad Prism (version 6) soft-ware. Flow cytometric measurements were performed using four colors FACSCalibur (Becton Dickinson).

[1] = tested on: tryptophan catabolism/IDO activity in MonoMac-1; test: Tryptophan catabolism/IDO activity (kynurenine/tryptophan in cell culture supernatant) in MonoMac-1; conditions: for kynurenine/tryptophan ratio: cell culture supernatant, FIG. 7C
Source text: A major mechanism for inflammation and disease pathogenesis involves tryptophan catabolism via the kynurenine pathway. As such we evaluated cytokine inducers of IDO enzyme induction, a limiting step in the kynurenine pathway.
TNF α and IFN γ induce tryptophan catabolism/IDO activity as determined by increase in the kynurenine/tryptophan ratio in cell culture supernatant, in response to TNF alpha and IFN gamma treatment (FIG. 7).

MCP-1 = MCP-1 concentration in MonoMac-1 culture; conditions: FIG. 8
[2] = induction: PMA 20 ng/ml ± LPS 10 ng/ml 3 days, then MCSF 5 ng/ml + DEX 200 ng/ml 4 days, FIG. 1A

| Molecule | expression of CD163+ (MONO-MAC-1 cells) | expression of CD16+ (MONO-MAC-1 cells) | kynurenine/tryptophan ratio [1] | MCP-1 concentration (MCP-1) | expression of CD163+ monocytes (MONO-MAC-1 cells; [2]) | further results |
| --- | --- | --- | --- | --- | --- | --- |
| FC(F)(F)c1ccc(CNc2ccc(Cc3c[nH]c4ncc(Cl)cc34)cn2)cn1 [PLX3397, reference compound] |  |  |  |  |  | expression of CD16+ monocytes (MONO-MAC-1 cells; antagonist 500 nM added after PMA/LPS 72 h and 4 days MCSF+DEX, FIG. 4A): reduction in expression; expression of CD4+ monocytes (MONO-MAC-1 cells; antagonist 500 nM added after PMA/LPS 72 h and 4 days MCSF+DEX, FIG. 4B): reduction in expression; expression of CD163+ monocytes (MONO-MAC-1 cells; antagonist 500 nM added after PMA/LPS 72 h and 4 days MCSF+DEX, FIG. 4C): significantly decreases expression |
| TNF α | further increase the expression | further increase the expression | increase | increase MCP-1 |  |  |
| lipopolysaccharide [LPS, reference compound] |  |  |  |  | has the most effect | percentage of CD16+CD163+ monocytes (MONO-MAC-1 cells; induction: PMA ± LPS 3 days, then DEX+MCSF 4 days, FIG. 2, FIG. 3): required to have maximum effect |
| B1 |  |  |  |  | promotes expression |  |
| B2 | further increase the expression | further increase the expression | increase | increase MCP-1 |  | tryptophan concentration ([1]; added to the combination of PMA, LPS, MCSF and DEX, FIG. 7A): decreased; kynurenine concentration ([1]; added to the combination of PMA, LPS, MCSF and DEX, FIG. 7B): increased |
